Measured values reported in patent publication US12637461B2, “Compounds for the activation of AMPK” (PFIZER INC., priority 2022, dated 2026).

Biological target: T1, human AMPK α2β2γ3 (Homo sapiens, UniProt O43741+P54646+Q9UGI9)
T1 construct: expressed in transfected cells; host or cells: HEK293AD cells, MaxCyte bulk electroporation
Test: Primary cellular assay: γ3 associated phospho-Thr172 AMPK detection (custom pAMPK Surefire AlphaLISA) in α2β2γ3 bulk transiently transfected HEK293 cells
Format: cell-based
Settings: activation of human AMPK α2β2γ3 (γ3 pThr172 AMPK signal) in transiently transfected HEK293 cells, 20 minutes compound incubation; for Emax: 20 min, read-out: Assay GMean Asy. Max (%); for Emax / Assay GMean Asy. Max (%): geometric mean of the asymptotic max; for EC50: geometric mean EC50, read-out: Assay GMean EC50
Protocol: Primary Cellular Assay—γ3 Associated Phospho-Thr172 AMPK Detection in α2β2γ3 Bulk Transiently Transfected HEK293 Cells
The cellular potencies of the compounds were evaluated using a custom pAMPK Surefire AlphaLISA designed to assess γ3 associated phospho-Thr172 AMPK and modulation by small molecules in AMPK α2β2γ3 transiently transfected HEK293 cells.
A pAMPK Surefire AlphaLISA (PE-ASLU-PAMPK) assay available through Perkin Elmer was modified to selectively assess γ3 pThr172 AMPK content (as opposed to total pThr172 AMPK) by labeling a γ3 antibody with a CaptSure™ tag and substituting it for the total α1c/α2 AMPK labeled antibodies in the kit. In the modified assay, the overall abundance of γ3 AMPK is recognized by the CaptSure γ3 antibody and the phosphorylated AMPK is recognized by biotinylated pThr172 antibody. Subsequent reactivity with streptavitin donor beads and anti CaptSure conjugated acceptor beads brings the molecules into close proximity. Upon excitation at 680 nm, the donor bead converts ambient oxygen to a more excited singlet state which reacts with the acceptor bead and emits light at 520 to 620 nm. The intensity of the signal is proportional to the level of γ3 associated pThr172 AMPK phosphorylation.
In short, AMPK-α2+β2+γ3 MaxCyte bulk-transfected HEK293AD cells were thawed in growth media (DMEM High glucose+10% FBS) in a collagen-coated T150 flask and the cells were allowed to adhere and grow overnight in a 37° C. incubator. The following day, the cells were harvested and resuspended in plating medium (DMEM Low glucose+10% FBS) at a concentration of 100,000 cells per mL and 50 μL of this cell suspension was added to all wells of a 384-well plate using a Multidrop Combi. The cells were allowed to adhere and grow for 2 days in a 37° C. incubator. On assay day, compounds were diluted in 100% dimethyl sulfoxide (DMSO) in a 11 dose, half log dilution scheme and spotted in the cell plates at 1000× the final concentration. Compound incubations were performed in plating media for 20 minutes. Cells were washed with PBS, lysed and the signal was generated by subsequent additions of RB1 reagent from the kit, 1:1000 CaptSure γ3 labeled antibody in 1× immunoassay buffer, Anti-CaptSure acceptor beads and Streptavitin donor beads at final concentration of […]. The γ3 pThr172 AMPK signal was developed using EnVision™ multilabel reader (Perkin Elmer) using Alphascreen settings. The fluorescence emission was used to calculate the % effect relative to the HPE (30 μM) and ZPE (DMSO). EC50 curves were generated with the ActivityBase software using the XLfit model 205 to determine EC50 and Emax values.
For screening purposes, bulk AMPK-α2+β2+γ3 MaxCyte bulk transfection into HEK293AD cells were generated to support SAR screening as follows.
HEK293AD cells were seeded into 10 flasks at 2.7×10^7 cells per flask. The following day 12 mL of Trypl E dissociation reagent were added to each flask to lift the cells and the cells were then spun at 300×g for 5 minutes. Cells were washed once in MaxCyte EP buffer and then resuspended in MaxCyte EP buffer at 1×10^8 cells per mL. For transfection, 500×10^6 cells in 500 μl MaxCyte EP buffer were placed in a CL1.1 Processing Assembly (electroporation cell) with 1 mg/mL ([…]) of each of the plasmids pcDNA3.1(+)-human AMPK alpha 2, pcDNA3.1(+)-human AMPK beta 2 and pcDNA3.1(+)-human AMPK gamma 3 and the electroporation was carried out on the MaxCyte STX using the HEK293 electroporation protocol. Following electroporation, cells were transferred to a T175 flask containing growth medium (DMEM High glucose+10% FBS) and allowed to recover for 25 minutes, then the cells were resuspended to final volume of 900 mL and distributed into 6XT175 flasks and allowed to adhere and grow overnight in a 37° C. incubator. […]

T1 sequence (P54646 whole entry): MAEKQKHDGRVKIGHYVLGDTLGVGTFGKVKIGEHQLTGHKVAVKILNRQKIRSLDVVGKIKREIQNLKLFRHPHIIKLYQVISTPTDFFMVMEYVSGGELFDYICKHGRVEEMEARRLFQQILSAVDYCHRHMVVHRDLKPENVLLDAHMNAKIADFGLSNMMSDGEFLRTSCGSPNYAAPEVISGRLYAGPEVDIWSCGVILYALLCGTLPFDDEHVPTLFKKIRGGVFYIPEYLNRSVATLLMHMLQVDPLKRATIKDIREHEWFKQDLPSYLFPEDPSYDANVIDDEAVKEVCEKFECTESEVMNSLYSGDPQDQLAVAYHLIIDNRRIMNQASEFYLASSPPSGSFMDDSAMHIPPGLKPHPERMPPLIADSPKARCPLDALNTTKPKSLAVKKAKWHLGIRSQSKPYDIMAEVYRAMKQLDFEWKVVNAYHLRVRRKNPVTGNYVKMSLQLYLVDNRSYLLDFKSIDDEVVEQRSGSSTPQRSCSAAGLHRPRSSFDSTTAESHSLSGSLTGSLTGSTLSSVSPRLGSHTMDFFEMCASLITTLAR
T1 sequence (O43741 whole entry): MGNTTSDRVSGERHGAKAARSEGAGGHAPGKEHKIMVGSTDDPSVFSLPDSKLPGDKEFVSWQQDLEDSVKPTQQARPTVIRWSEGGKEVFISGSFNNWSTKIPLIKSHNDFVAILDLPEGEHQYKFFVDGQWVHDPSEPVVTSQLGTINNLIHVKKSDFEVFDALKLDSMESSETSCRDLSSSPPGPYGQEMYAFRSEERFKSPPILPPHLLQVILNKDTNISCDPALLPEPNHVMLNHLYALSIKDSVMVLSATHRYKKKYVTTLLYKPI
T1 sequence (Q9UGI9 whole entry): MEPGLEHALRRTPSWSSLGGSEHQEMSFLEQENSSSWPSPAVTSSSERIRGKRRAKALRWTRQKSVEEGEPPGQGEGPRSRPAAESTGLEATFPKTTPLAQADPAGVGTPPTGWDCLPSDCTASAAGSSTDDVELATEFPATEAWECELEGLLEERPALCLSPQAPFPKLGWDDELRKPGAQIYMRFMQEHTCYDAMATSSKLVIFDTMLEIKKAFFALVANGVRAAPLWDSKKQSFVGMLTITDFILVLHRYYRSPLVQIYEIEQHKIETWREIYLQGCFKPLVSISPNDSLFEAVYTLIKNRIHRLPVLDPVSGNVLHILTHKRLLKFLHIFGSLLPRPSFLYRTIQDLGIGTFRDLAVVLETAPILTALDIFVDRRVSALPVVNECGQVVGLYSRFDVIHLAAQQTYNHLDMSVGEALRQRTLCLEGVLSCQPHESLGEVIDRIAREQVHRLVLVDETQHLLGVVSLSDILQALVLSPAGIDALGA

Structure (SMILES)	Emax	EC50	Assay GMean Asy. Max (%)
CC1(c2cccc(Cl)c2F)CN(c2ncccc2F)C(=O)c2cnc(NC3CN(C(=O)N4CCC[C@@H]4CO)C3)nc21 (single isomer, unassigned) [compound 86]	106%	34.6 nM	
COC[C@H](C)NC(=O)N1CC(Nc2ncc3c(n2)C(C)(c2cccc(Cl)c2F)CN(c2ncccc2F)C3=O)C1 (single isomer, unassigned) [compound 85]	141%	162 nM	
CC1(c2cccc(Cl)c2F)CN(c2ncccc2F)C(=O)c2cnc(NC3CN(C(=O)C4(O)CC4(C)C)C3)nc21 (single isomer, unassigned) [Example 28, 8-(3-Chloro-2-fluorophenyl)-6-(3-fluoropyridin-2-yl)-2-{[1-(1-hydroxy-2,2-dimethylcyclopropane-1-carbonyl)azetidin-3-yl]amino}-8-methyl-7,8-dihydropyrido[4,3-d]pyrimidin-5(6H)-one]		571 nM	98.9%
CC1(c2cccc(Cl)c2F)CN(c2ncccc2F)C(=O)c2cnc(NC3CN(C(=O)CO)C3)nc21 (single isomer, unassigned) [Example 26, 8-(3-Chloro-2-fluorophenyl)-6-(3-fluoropyridin-2-yl)-2-{[1-(hydroxyacetyl)azetidin-3-yl]amino}-8-methyl-7,8-dihydropyrido[4,3-d]pyrimidin-5(6H)-one]	47.6%	183 nM	
CC(C)(CO)NC(=O)N1CC(Nc2ncc3c(n2)C(C)(c2cccc(Cl)c2F)CN(c2ncccc2F)C3=O)C1 (centres unmarked) [compound 87, 3-{[8-(3-chloro-2-fluorophenyl)-6-(3-fluoropyridin-2-yl)-8-methyl-5-oxo-5,6,7,8-tetrahydropyrido[4,3-d]pyrimidin-2-yl]amino}-N-(1-hydroxy-2-methylpropan-2-yl)azetidine-1-carboxamide, from P13 (ENANT-2)]	175%	152 nM	
CNC(=O)N1CC(Nc2ncc3c(c2F)[C@@](C)(c2cccc(Cl)c2F)CN(c2ncccc2F)C3=O)C1 [Example 20, 3-{[(5R)-5-(3-Chloro-2-fluorophenyl)-4-fluoro-7-(3-fluoropyridin-2-yl)-5-methyl-8-oxo-5,6,7,8-tetrahydro-2,7-naphthyridin-3-yl]amino}-N-methylazetidine-1-carboxamide]	43.1%	23.9 nM	
C[C@]1(c2cccc(Cl)c2F)CN(c2ccccc2F)C(=O)c2cnc(NC3CN(C(=O)[C@@H]4C[C@@H]4F)C3)c(F)c21 [compound 56, (4R)-4-(3-chloro-2-fluorophenyl)-5-fluoro-6-({1-[(1S,2S)-2-fluorocyclopropane-1-carbonyl]azetidin-3-yl}amino)-2-(2-fluorophenyl)-4-methyl-3,4-dihydro-2,7-naphthyridin-1(2H)-one]	92.9%	256 nM	
Cn1cc(F)c(N2CC(C)(c3ccc(F)c(Cl)c3F)c3c(cnc(NC4CN(C(=O)C(C)(C)O)C4)c3F)C2=O)n1 (centres unmarked) [compound 101, 4-(3-chloro-2,4-difluorophenyl)-5-fluoro-2-(4-fluoro-1-methyl-1H-pyrazol-3-yl)-6-{[1-(2-hydroxy-2-methylpropanoyl)azetidin-3-yl]amino}-4-methyl-3,4-dihydro-2,7-naphthyridin-1(2H)-one, from P3 (ENANT-2)]	108%	135 nM	
Cn1cc(F)c(N2CC(C)(c3cccc(Cl)c3F)c3c(cnc(N[C@@H]4CCN(C(=O)N5C[C@@H]6C[C@H]5CO6)C4)c3F)C2=O)n1 (single isomer, unassigned) [Example 25]	52.2%	160 nM	
CC1(c2cccc(Cl)c2F)CN(c2ncccc2F)C(=O)c2cnc(NC3CN(C(=O)N4C[C@H]5C[C@@H]4[C@@H](O)C5)C3)nc21 (single isomer, unassigned) [Example 32]	173%	219 nM	
CC1(c2ccc(F)c(Cl)c2F)CN(c2ccc(N)cn2)C(=O)c2cnc(NC3CN(C(=O)[C@@H]4C[C@@H]4F)C3)c(F)c21 (single isomer, unassigned) [compound 102]	51.4%	25.9 nM	
Cn1cc(F)c(N2C[C@](C)(c3cccc(Cl)c3F)c3c(cnc(NC4CN(C(=O)C(C)(O)C5CC5)C4)c3F)C2=O)n1 (single isomer, unassigned) [Example 9]		> 55.7 nM	118.8%
CC1(c2cccc(Cl)c2F)CN(c2ncccc2F)C(=O)c2cnc(NC3CN(C(=O)N4C[C@@H]5C[C@H]4CO5)C3)nc21 (single isomer, unassigned) [compound 88]	213%	71.6 nM	

Now from value to compound:

Emax	EC50	Assay GMean Asy. Max (%)	Structure (SMILES)
79.2%	165 nM		C[C@@H](O)c1ccc(N2C[C@](C)(c3cccc(Cl)c3F)c3c(cnc(NC4CN(C(=O)[C@@H]5C[C@@H]5F)C4)c3F)C2=O)nc1 [Example 18, (4R)-4-(3-Chloro-2-fluorophenyl)-5-fluoro-6-({1-[(1S,2S)-2-fluorocyclopropane-1-carbonyl]azetidin-3-yl}amino)-2-{5-[(1R)-1-hydroxyethyl]pyridin-2-yl}-4-methyl-3,4-dihydro-2,7-naphthyridin-1(2H)-one]
120%	144 nM		C[C@]1(c2cccc(Cl)c2F)CN(c2ccc([C@@H]3COCCN3)cn2)C(=O)c2cnc(NC3CN(C(=O)c4cccnn4)C3)c(F)c21 (single isomer, unassigned) [Example 17]
63.7%	233 nM		C[C@]1(c2cccc(Cl)c2F)CN(c2ccc(OC(F)F)cn2)C(=O)c2cnc(NC3CN(C(=O)[C@@H]4C[C@@H]4F)C3)c(F)c21 [compound 50, (4R)-4-(3-chloro-2-fluorophenyl)-2-[5-(difluoromethoxy)pyridin-2-yl]-5-fluoro-6-({1-[(1S,2S)-2-fluorocyclopropane-1-carbonyl]azetidin-3-yl}amino)-4-methyl-3,4-dihydro-2,7-naphthyridin-1(2H)-one]
63.2%	49.1 nM		CNc1ccc(N2C[C@](C)(c3cccc(Cl)c3F)c3c(cnc(NC4CN(C(=O)[C@@H]5C[C@@H]5F)C4)c3F)C2=O)nc1 [compound 51, (4R)-4-(3-chloro-2-fluorophenyl)-5-fluoro-6-({1-[(1S,2S)-2-fluorocyclopropane-1-carbonyl]azetidin-3-yl}amino)-4-methyl-2-[5-(methylamino)pyridin-2-yl]-3,4-dihydro-2,7-naphthyridin-1(2H)-one]
58%	22.2 nM		C[C@]1(c2cccc(Cl)c2F)CN(c2ncccc2F)C(=O)c2cnc(NC3CN(C(=O)[C@@H]4C[C@@H]4F)C3)c(F)c21 [Example 6, (4R)-4-(3-chloro-2-fluorophenyl)-5-fluoro-6-({1-[(1S,2S)-2-fluorocyclopropane-1-carbonyl]azetidin-3-yl}amino)-2-(3-fluoropyridin-2-yl)-4-methyl-3,4-dihydro-2,7-naphthyridin-1(2H)-one]
112%	33.6 nM		C[C@]1(c2cccc(Cl)c2F)CN(c2ncccc2F)C(=O)c2cnc(NC3CN(C(=O)C4(O)CC4)C3)c(F)c21 [Example 1, (4R)-4-(3-Chloro-2-fluorophenyl)-5-fluoro-2-(3-fluoropyridin-2-yl)-6-{[1-(1-hydroxycyclopropane-1-carbonyl)azetidin-3-yl]amino}-4-methyl-3,4-dihydro-2,7-naphthyridin-1(2H)-one]
